Measured values from patent US6248739A, “Quinolinecarboxamides as antiviral agents” (Pharmacia & Upjohn Company, priority 1999, dated 2001).
pIC50: −log10 of the molar value. Counter-ions that a name gives are not always drawn.

The compounds below were run against T1, HCMV polymerase (Human cytomegalovirus, UniProt P08546) (assay: biochemical). Details: not given.
T1 construct: made in house; host or cells: recombinant baculovirus-infected SF-9 insect cells
Protocol: The HCMV polymerase assay is performed using a scintillation proximity assay (SPA) as described in several references, such as N. D. Cook, et al., Pharmaceutical Manufacturing International, pages 49-53 (1992); K. Takeuchi, Laboratory Practice, September issue (1992); U.S. Pat. No. 4,568,649 (1986); which are incorporated by reference herein. Reactions are performed in 96-well plates. The assay is conducted in 100 μl volume with 5.4 mM HEPES (pH 7.5), 11.7 mM KCl, 4.5 mM MgCl2, 0.36 mg/ml BSA, and 90 nM ^3 H-dTTP. Assays are run with and without CHAPS, (3-[(3-Cholamidopropyl)dimethylammonio]-1-propane-sulfonate) at a final concentration of 2 mM. HCMV polymerase is diluted in enzyme dilution buffer containing 50% glycerol, 250 mM NaCl, 10 mM HEPES (pH 7.5), 100 μg/ml BSA, and 0.01% sodium azide. The HCMV polymerase, which is expressed in recombinant baculovirus-infected SF-9 cells and purified according to literature procedures, is added at 10% (or 10 μl) of the final reaction volume, i.e., 100 μl. Compounds are diluted in 50% DMSO and 10 μl are added to each well. Control wells contain an equivalent concentration of DMSO. Unless noted otherwise, reactions are initiated via the addition of 6 nM biotinylated poly(dA)-oligo(dT) template/primer to reaction mixtures containing the enzyme, substrate, and compounds of interest. Plates are incubated in a 25 C. or 37 C. H2 O bath and terminated via the addition of 40 μl/reaction of 0.5 M EDTA (pH 8) per well. Reactions are terminated within the time-frame during which substrate incorporation is linear and varied depending upon the enzyme and conditions used, i.e., 30 min. for HCMV polymerase. Ten μl of streptavidin-SPA beads (20 mg/ml in PBS/10% glycerol) are added following termination of the reaction. Plates are incubated 10 min. at 37 C., then equilibrated to room temperature, and counted on a Packard Topcount. Linear regressions are performed and IC50 's are calculated using computer software.
A modified version of the above HCMV polymerase assay is performed as described above, but with the following changes: Compounds are diluted in 100% DMSO until final dilution into assay buffer. In the previous assay, compounds are diluted in 50% DMSO. 4.5 mM dithiotherotol (DTT) is added to the polymerase buffer.

T1 sequence (P08546 whole entry): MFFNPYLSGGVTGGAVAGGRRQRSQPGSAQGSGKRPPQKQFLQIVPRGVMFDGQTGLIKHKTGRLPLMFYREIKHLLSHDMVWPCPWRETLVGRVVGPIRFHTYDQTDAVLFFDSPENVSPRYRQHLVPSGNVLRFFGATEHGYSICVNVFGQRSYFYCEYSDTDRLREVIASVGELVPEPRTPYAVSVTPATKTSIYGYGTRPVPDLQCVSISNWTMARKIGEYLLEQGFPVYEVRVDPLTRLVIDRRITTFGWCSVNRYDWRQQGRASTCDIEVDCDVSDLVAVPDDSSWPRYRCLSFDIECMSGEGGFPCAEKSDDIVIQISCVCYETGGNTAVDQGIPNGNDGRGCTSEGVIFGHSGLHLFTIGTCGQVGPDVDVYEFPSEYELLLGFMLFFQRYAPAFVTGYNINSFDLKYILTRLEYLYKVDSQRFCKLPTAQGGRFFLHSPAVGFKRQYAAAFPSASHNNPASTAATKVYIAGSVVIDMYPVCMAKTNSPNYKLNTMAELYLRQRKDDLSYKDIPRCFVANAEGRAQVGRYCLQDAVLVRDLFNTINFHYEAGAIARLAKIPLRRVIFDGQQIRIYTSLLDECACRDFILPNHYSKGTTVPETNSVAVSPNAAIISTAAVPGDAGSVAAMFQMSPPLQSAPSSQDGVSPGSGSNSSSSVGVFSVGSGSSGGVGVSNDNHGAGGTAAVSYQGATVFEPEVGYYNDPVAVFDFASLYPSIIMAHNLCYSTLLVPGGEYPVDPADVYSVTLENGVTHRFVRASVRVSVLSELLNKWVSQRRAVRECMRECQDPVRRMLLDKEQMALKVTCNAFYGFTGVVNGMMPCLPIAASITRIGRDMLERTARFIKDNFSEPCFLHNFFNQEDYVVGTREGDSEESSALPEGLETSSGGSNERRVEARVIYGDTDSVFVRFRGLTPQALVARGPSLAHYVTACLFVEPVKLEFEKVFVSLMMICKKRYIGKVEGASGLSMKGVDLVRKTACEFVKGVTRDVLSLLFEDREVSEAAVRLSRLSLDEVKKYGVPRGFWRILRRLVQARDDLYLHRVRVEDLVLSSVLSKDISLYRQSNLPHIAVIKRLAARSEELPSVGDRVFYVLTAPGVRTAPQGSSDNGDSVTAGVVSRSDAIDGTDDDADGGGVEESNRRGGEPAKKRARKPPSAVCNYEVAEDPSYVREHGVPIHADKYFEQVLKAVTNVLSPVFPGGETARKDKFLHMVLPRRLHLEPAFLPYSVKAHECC

Row | Compound | pIC50
1 | O=C(NCc1ccc(Cl)cc1)c1cn(CCCOC2CCCCO2)c2c(F)cc(CO)cc2c1=O (centres unmarked) [Example 6, N-(4-Chlorobenzyl)-8-fluoro-6-(hydroxymethyl)-4-oxo-1-[3-(tetrahydro-2H-pyran-2-yloxy)propyl]-1,4-dihydro-3-quinolinecarboxamide] | 5.14
2 | CN1CCCC1CCn1cc(C(=O)NCc2ccc(Cl)cc2)c(=O)c2cc(C#CCO)ccc21 (centres unmarked) [Example 16, N-(4-Chlorobenzyl)-1,4-dihydro-6-(3-hydroxy-1-propynyl)-1-[2-(1-methyl-2-pyrrolindinyl)ethyl]-4-oxo3-quinolinecarboxamide] | 5.55
3 | O=C(NCc1ccc(Cl)cc1)c1cn(CCN2CCCC2)c2ccc(C#CCO)cc2c1=O [Example 18, N-(4-Chlorobenzyl)-6-(3-hydroxy-1-propynyl)-1-[2-(1-pyrolidinyl)ethyl]-4-oxo-1,4-dihydro-3-quinolinecarboxamide] | 5.57

Same assay, conditions: HCMV polymerase; SPA; modified assay: compounds in 100% DMSO, 4.5 mM DTT

Row | pIC50 | Compound
4 | < 4.70 | CN(CCS(=O)(=O)O)C(=O)CCCCCCC(=O)OCCCc1ccc2c(c1)c(=O)c(C(=O)NCc1ccc(Cl)cc1)cn2C1CC1
5 | 5.77 | CC(C)n1cc(C(=O)NCc2ccc(Cl)cc2)c(=O)c2cc(C#CCO)ccc21 [Example 1, N-(4-Chlorobenzyl)-6-(3-hydroxy-1-propynyl)-1-isopropyl-4-oxo-1,4-dihydro-3-quinolinecarboxamide]
6 | 5.80 | CCC(C)n1cc(C(=O)NCc2ccc(Cl)cc2)c(=O)c2cc(C#CCO)ccc21 (centres unmarked) [Example 2, 1-(sec-butyl)-N-(4-chlorobenzyl)-6-(3-hydroxy-1-propynyl)-4-oxo-1,4-dihydro-3-quinolinecarboxamide]
7 | 5.64 | CCC(C)n1cc(C(=O)NCc2ccc(Cl)cc2)c(=O)c2cc(C#CCO)cc(OC)c21 (centres unmarked) [Example 3, 1-(sec-butyl)-N-(4-chlorobenzyl)-6-(3-hydroxy-1-propynyl)-8-methoxy-4-oxo-1,4-dihydro-3-quinolinecarboxamide]
8 | 5.80 | Cn1cc(C(=O)NCc2ccc(Cl)cc2)c(=O)c2cc(CCCO)cc(OC(CO)CO)c21 [Example 5, N-(4-Chlorobenzyl)-8-[2-hydroxy-1-(hydroxymethyl)ethoxy]-6-(3-hydroxypropyl)1-methyl-4-oxo-1,4-dihydro-3-quinolinecarboxamide]
9 | 6.00 | Cn1cc(C(=O)NCc2ccc(Cl)cc2)c(=O)c2cc(C#CCO)cc(F)c21 [Example 8, N-(4-Chlorobenzyl)-8-fluoro-6-(3-hydroxy-1-propynyl)-1-methyl-4-oxo-1,4-dihydro-3-quinolinecarboxamide]
10 | > 6.11 | Cn1cc(C(=O)NCc2ccc(Cl)cc2)c(=O)c2cc(/C=C\CO)cc(F)c21 [Example 9, N-(4-Chlorobenzyl)-8-fluoro-6-[(Z)-3-hydroxy-1-propenyl)-1-methyl-4-oxo-1,4-dihydro-3-quinolinecarboxamide]
11 | 5.77 | CCN(CC)CCn1cc(C(=O)NCc2ccc(Cl)cc2)c(=O)c2cc(C#CCO)cc(F)c21 [Example 10, N-(4-Chlorobenzyl)-1-[2-(diethylamino)ethyl]-8-fluoro-6-(3-hydroxy-1-propynyl)-4-oxo-1,4-dihydro-3-quinolinecarboxamide]
12 | 5.82 | CCCn1cc(C(=O)NCc2ccc(Cl)cc2)c(=O)c2cc(C#CCO)ccc21 [Example 11, N-(4-Chlorobenzyl)-6-(3-hydroxy-1-propynyl)-4-oxo-1-propyl-1,4-dihydro-3-quinolinecarboxamide]
13 | 5.54 | CN(C)CCn1cc(C(=O)NCc2ccc(Cl)cc2)c(=O)c2cc(C#CCO)ccc21 [Example 13, N-(4-Chlorobenzyl)-1-[2-(dimethylamino)ethyl]-6-(3-hydroxy-1-propynyl)-4-oxo-1,4-dihydro-3-quinolinecarboxamide, hydrochloride salt]
14 | 5.39 | O=C(NCc1ccc(Cl)cc1)c1cn(CCCN2CCCCC2)c2ccc(C#CCO)cc2c1=O [Example 15, N-(4-Chlorobenzyl)-6-(3-hydroxy-1-propynyl)-1-[3-(1-piperidinyl)propyl]-4-oxo-1,4-dihydro-3-quinolinecarboxamide]
